Columns and labels:
[1] = High humidity test (25° C., relative humidity 90% ± 5%), stability study; format: physicochemical; conditions: RH 90% ± 5%; for Appearance Day 0: Day 0, cell wraps; for Appearance Day 0 / Appearance Day 5 / Appearance Day 10: first line given; for Appearance Day 5: Day 5, cell wraps; for Appearance Day 10: Day 10, cell wraps;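 as to all read-outs here: samples kept uncovered in sealed humidity desiccators, appearance judged mainly by colour change, melting point on an automatic apparatus, TLC checked for extra spots versus start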
Method: (§1) The test samples were open-stored in closed constant humidity desiccators under the condition of 25° C. and relative humidity of 90%+5% for 10 days, and taken and detected on Day 5 and Day 10. Meanwhile, each sample was accurately weighed before and after test.
The characteristics, especially colour change was observed.
Melting points were measured by an automatic melting point apparatus.
By self-reflection, TLC is used to observe whether the spot numbers were increased after 5 days and 10 days.

[2] = Intense light irradiation test (4500LX ± 500LX), stability study; format: physicochemical; conditions: for Appearance Day 0: Day 0, cell wraps; for Appearance Day 0 / Appearance Day 5 / Appearance Day 10: first line given; for Appearance Day 5: Day 5, cell wraps; for Appearance Day 10: Day 10, cell wraps
Method: (§2) The test samples were open-stored in “adjustable light boxes” under the conditions of illumination of 4500LX±500LX for 10 days, and taken and detected on Day 5 and Day 10 with regards to dry items. • The characteristics, especially colour change was observed. • Melting points were measured by an automatic melting point apparatus. • By self-reflection, TLC is used to observe whether the spot numbers were increased after 5 days and 10 days.

[3] = Stability studies (light, humidity, heat), overall comparison; conditions: for light, humidity and heat stability in words: summary of high-temperature, high humidity and intense light tests
Method: (§3) The test samples were open-stored in culture dishes at 60° C. for 10 days, and taken and detected on Day 5 and Day 10. • The characteristics, especially colour change were observed. • Melting points were measured by automatic melting point apparatus. • By self-reflection, TLC is used to observe whether the spot numbers were increased after 5 days and 10 days.
as §1, §2

[4] = High-temperature test (60° C.), stability study; format: physicochemical; conditions: open-stored; for Appearance Day 5: Day 5, cell wraps; for Appearance Day 5 / Appearance Day 10: first line given; for Appearance Day 10: Day 10, cell wraps;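 as to all read-outs here: samples kept uncovered in dishes at 60 °C for up to 10 days and examined on Day 5 and Day 10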
Method: as §3

[5] = test system: ethanol-induced gastric ulcer; assay: Anhydrous ethanol-induced gastric ulcer in mice; format: in vivo, Kunming mice; parameters: key to Gastri ulcer score (X ± SD) / Ulcer score (X ± SD) / Gastric ulcer score (X ± SD): summed pathology score: congestion 1, hemorrhage/erosion 1, linear erosion 3; conditions: for Inhibition rate (%): inhibition rate of ulcer vs model group; for Gastric ulcer score (X ± SD) / Gastri ulcer score (X ± SD) / Ulcer score (X ± SD): mice, intragastric once a day for five days; for anti-gastric ulcer effect in words: ethanol-induced gastric ulcer in mice, compared to the model group; for Gastri ulcer score (X ± SD): dose equimolar to azulene sulfonate sodium 3.0 mg/kg (Omeprazole 13.4 mg/kg), model group 13.00 ± 1.77; for Ulcer score (X ± SD): equimolar doses, model group 20.33 ± 12.23
Method: Kunming mice, half male and half female, weighing 18-22 g, provided by the West China Animal Center
(1) Azulene sodium sulphonate was added with 0.5% CMC to prepare a suspension with concentration of 0.15 mg/ml.
(2) 20 mg of Omeprazole was added with 0.5% CMC to prepare a suspension with concentration of 0.67 mg/ml.
Kunming mice were randomly grouped according the body weight (one model control group or negative control group, one Omeprazole control group or positive control group, one Azulene sodium sulphonate control group, twelve test drug groups), eight mice for each group, half male and half female.
Administration: Model control group was administrated intragastrically with 0.5% CMC solution at a dose of 0.4 ml/20 g; Omeprazole control group was administrated intragastrically with Omeprazole at a dose of 0.4 ml/20 g, Azulene sodium sulphonate control group and each test drug groups were administrated intragastrically with their respective drug at a dose of 0.4 ml/20 g. The mice in each group were administrated once a day for successive five days. 0.5 hour after final administration, the mice in each group were administrated intragastrically with 0.5 ml of anhydrous ethanol, one hour later the mice were executed and dissected, and their stomaches were taken, washed and scored according to the pathological degree. For local congestion and rubefaction, score was 1; for petechial hemorrhage or erosion, score was respectively 1, for each linear erosion, score was 3. Statistical analysis was performed. Ulcer scores were calculated, significant differences between the groups were compared and the inhibition rates of ulcer were calculated [Inhibition rate of ulcer=(ulcer score of model group−ulcer score of drug administration group)/ulcer score of model group].

[6] = Table 6, model group 17.86 ± 8.43
[7] = Table 7, model group 19.71 ± 7.18

| Melting point Day 0 [1] | Spot numbers on TLC Day 0 [1] | hygroscopic rate (%) Day 0 [1] [%] | Appearance Day 0 [1] | Melting point Day 5 [1] | Spot numbers on TLC Day 5 [1] | hygroscopic rate (%) Day 5 [1] [%] | Appearance Day 5 [1] | Melting point Day 10 [1] | Spot numbers on TLC Day 10 [1] | Appearance Day 10 [1] | Melting point Day 0 [2] | Spot numbers on TLC Day 0 [2] | Appearance Day 0 [2] | melting point [°C] | Compound | Inhibition rate (%) ([5]; Table 6) | Gastric ulcer score (X ± SD) [5, 6] | anti-gastric ulcer effect in words [5] | Inhibition rate (%) ([5]; Table 7) | Gastric ulcer score (X ± SD) [5, 7] | further results |
| --- | --- | --- | --- | --- | --- | --- | --- | --- | --- | --- | --- | --- | --- | --- | --- | --- | --- | --- | --- | --- | --- |
| 127.5-130.0 °C | 1 | 0.95 | purple | 128.0-130.5 °C | 1 | 1.32 | purple | 128.0-130.5 °C | 1 | purple | 127.5-130.0 °C | 1 | purple | 128 to 130 | Cc1cc(S(=O)(=O)NC(C)C)c2c(C)ccc(C(C)C)cc1-2 [4c, N,5-diisopropyl-3,8-dimethyl-1-azulene sulfonamide] |  |  |  |  |  | Melting point Day 5 [2]: 127.0-129.5 °C; Spot numbers on TLC Day 5 [2]: 1; Appearance Day 5 [2]: purple; Melting point Day 10 [2]: 125.0-126.5 °C; Spot numbers on TLC Day 10 [2]: 2; Appearance Day 10 [2]: purple; light, humidity and heat stability in words [3]: better light, humidity and heat stability than azulene sulfonate sodium; Melting point Day 0 [4]: 127.5-130.0 °C; Spot numbers on TLC Day 0 [4]: 1; Melting point Day 5 [4]: 127.5-129.5 °C; Spot numbers on TLC Day 5 [4]: 1; Appearance Day 5 [4]: purple; Melting point Day 10 [4]: 127.5-129.5 °C; Spot numbers on TLC Day 10 [4]: 1; Appearance Day 10 [4]: purple |
| 117.0-118.0 °C | 1 | 1.07 | purple | 116.5-118.5 °C | 1 | 1.51 | purple | 116.5-118.5 °C | 1 | purple | 117.0-118.0 °C | 1 | purple | 117 to 118 | Cc1cc(S(=O)(=O)NCC(C)C)c2c(C)ccc(C(C)C)cc1-2 [4e, N-isobutyl-3,8-dimethyl-5-isopropyl-1-azulene sulfonamide] |  |  |  |  |  | Melting point Day 5 [2]: 117.5-118.0 °C; Spot numbers on TLC Day 5 [2]: 1; Appearance Day 5 [2]: purple; Melting point Day 10 [2]: 115.0-117.5 °C; Spot numbers on TLC Day 10 [2]: 2; Appearance Day 10 [2]: purple; light, humidity and heat stability in words [3]: better light, humidity and heat stability than azulene sulfonate sodium; Melting point Day 0 [4]: 117.0-118.0 °C; Spot numbers on TLC Day 0 [4]: 1; Melting point Day 5 [4]: 117.5-118.5 °C; Spot numbers on TLC Day 5 [4]: 1; Appearance Day 5 [4]: purple; Melting point Day 10 [4]: 117.5-118.5 °C; Spot numbers on TLC Day 10 [4]: 1; Appearance Day 10 [4]: purple |
|  |  |  |  |  |  |  |  |  |  |  |  |  |  | 178 to 180 | COC(=O)C(Cc1c[nH]c2ccccc12)NS(=O)(=O)C1=C2C(C)=C=C=C(C(C)C)C=C2C(C)=C1 (stereo not shown) [5d, N-2-(indol-3-methyl)-2-methoxyformyl methylene-3′,8′-dimethyl-5′-isopropyl azulene-1′-sulfonamide] | 51.23 | 8.71 ± 4.93 | stronger and more significant anti-gastric ulcer capability |  |  |  |
|  |  |  |  |  |  |  |  |  |  |  |  |  |  | 94 to 96 | COC(=O)CCNS(=O)(=O)C1=C2C(C)=C=C=C(C(C)C)C=C2C(C)=C1 [5h, N-3-methoxyformylethyl-3′,8′-dimethyl-5′-isopropyl azulene-1′-sulfonamide] | 50.78 | 8.79 ± 4.38 | stronger and more significant anti-gastric ulcer capability |  |  |  |
|  |  |  |  |  |  |  |  |  |  |  |  |  |  | 44 to 46 | CC1=C=C=C(C(C)C)C=C2C(C)=CC(S(=O)(=O)NC(CC(C)C)C(=O)O)=C12 (stereo not shown) [6b, N-2-(2-methylpropyl)-2-carboxymethylene-3′,8′-dimethyl-5′-isopropyl azulene-1′-sulfonamide] |  |  | stronger and more significant anti-gastric ulcer capability | 50.94 | 9.67 ± 4.25 |  |
|  |  |  |  |  |  |  |  |  |  |  |  |  |  |  | Cc1cc(S(=O)(=O)NC(Cc2c[nH]c3ccccc23)C(=O)O)c2c(C)ccc(C(C)C)cc1-2 (stereo not shown) [6c, N-2-(indol-3-methyl)-2-carboxymethylene-3′,8′-dimethyl-5′-isopropyl azulene-1′-sulfonamide] |  |  | stronger and more significant anti-gastric ulcer capability | 55.05 | 8.86 ± 4.81 |  |
|  |  |  |  |  |  |  |  |  |  |  |  |  |  | 69 to 70 | CC1=C=C=C(C(C)C)C=C2C(C)=CC(S(=O)(=O)NCC(=O)N/N=C/c3cccs3)=C12 [8a] |  |  | stronger and more significant anti-gastric ulcer capability | 48.96 | 10.06 ± 5.60 |  |
|  |  |  |  |  |  |  |  |  |  |  |  |  |  |  | COc1ccc2[nH]c([S+]([O-])Cc3ncc(C)c(OC)c3C)nc2c1 (stereo not shown) [Omeprazole, reference compound] | 59.41 | 7.25 ± 7.15 |  | 58.25 | 8.23 ± 3.18 | Inhibition rate (%) ([5]; Table 4): 47.23%; Gastri ulcer score (X ± SD) ([5]; Table 4): 6.86 ± 3.77; Inhibition rate (%) ([5]; Table 5): 36.74%; Ulcer score (X ± SD) ([5]; Table 5): 12.86 ± 11.89 |

| Compound | Melting point Day 0 [1] | Spot numbers on TLC Day 0 [1] | hygroscopic rate (%) Day 0 [1] [%] | Appearance Day 0 [1] | Melting point Day 5 [1] | Spot numbers on TLC Day 5 [1] | hygroscopic rate (%) Day 5 [1] [%] | Appearance Day 5 [1] | Melting point Day 10 [1] | Spot numbers on TLC Day 10 [1] | Appearance Day 10 [1] | Melting point Day 0 [2] | Spot numbers on TLC Day 0 [2] | Appearance Day 0 [2] | melting point [°C] | Inhibition rate (%) ([5]; Table 6) | Gastric ulcer score (X ± SD) [5, 6] | anti-gastric ulcer effect in words [5] | Inhibition rate (%) ([5]; Table 7) | Gastric ulcer score (X ± SD) [5, 7] | further results |
| --- | --- | --- | --- | --- | --- | --- | --- | --- | --- | --- | --- | --- | --- | --- | --- | --- | --- | --- | --- | --- | --- |
| Cc1cc(S(=O)(=O)[O-])c2c(C)ccc(C(C)C)cc1-2.[Na+] [Azulene sulfonate sodium, 3,8-dimethyl-5-isopropyl azulene-1-sodium sulphonate, reference compound] | 104.0-106.0 °C | 1 | 2.16 | dark | 100.5-105.5 °C | 3 | 3.69 | blue | 98.5-102.0 °C | 3 | light | 104.0-106.0 °C | 1 | dark blue |  | 52.80 | 8.43 ± 5.74 |  | 52.16 | 9.43 ± 5.74 | Melting point Day 5 [2]: 102.5-105.5 °C; Spot numbers on TLC Day 5 [2]: 3; Appearance Day 5 [2]: blue; Melting point Day 10 [2]: 98.54-103.5 °C; Spot numbers on TLC Day 10 [2]: >4; Appearance Day 10 [2]: light; Inhibition rate (%) ([5]; Table 4): 45.08%; Gastri ulcer score (X ± SD) ([5]; Table 4): 7.14 ± 4.73; Inhibition rate (%) ([5]; Table 5): 32.56%; Ulcer score (X ± SD) ([5]; Table 5): 13.71 ± 10.75; light stability and heat stability in words ([3]; background statement, found by experiments): poor light stability and heat stability; Melting point Day 0 [4]: 104.0-106.0 °C; Spot numbers on TLC Day 0 [4]: 1; Melting point Day 5 [4]: 102.5-104.0 °C; Spot numbers on TLC Day 5 [4]: 2; Appearance Day 5 [4]: blue flake; Melting point Day 10 [4]: 98.5-100.0 °C; Spot numbers on TLC Day 10 [4]: 4; Appearance Day 10 [4]: light blue |
